pIC50: −log10 of the molar value. Like-named read-outs stand apart in the source and are kept apart here.
Experiments:
Format in all cases: cell-based
human A2A receptor [1] = molecular target: T1, human A2A receptor (Homo sapiens, UniProt P29274); experiment: Human T cells, endogenous A2A receptor, cAMP, agonist NECA
Procedure: The endogenous functional activity of the Gs-coupled human A2A receptor was measured in T cells, where this receptor is highly expressed. Determination of receptor activity was done by quantification of cAMP, which is a second messenger for adenosine receptors.
In short, human pan T cells were isolated from human PBMC (MACS Pan T Cell Isolation Kit, Miltenyi Biotec) that have been derived from fresh whole blood. The T cells were seeded in 384-well microtiter plates and treated with test compounds. […] Finally, HTRF reagents (cAMP Femto Kit, CisBio) were added to the wells, and after 1 h cellular cAMP levels were determined using the ENVISION (Perkin Elmer) plate reader.
The obtained raw data were normalized against the inhibitor control and the neutral control (DMSO) and the normalized data were fitted using Genedata Screener software.

human A1 receptor = molecular target: T2, human A1 receptor (Homo sapiens, UniProt P30542); experiment: Functional A1 receptor activity, recombinant CHO cells, cAMP (HTRF), forskolin, agonist CPA; details: recombinant CHO cells, forskolin, agonist CPA; read-out: Functional A1 receptor activity, CHO, cAMP, IC50
T2 construct: expressed in transfected cells; host or cells: CHO
T2 sequence (P30542 1-326): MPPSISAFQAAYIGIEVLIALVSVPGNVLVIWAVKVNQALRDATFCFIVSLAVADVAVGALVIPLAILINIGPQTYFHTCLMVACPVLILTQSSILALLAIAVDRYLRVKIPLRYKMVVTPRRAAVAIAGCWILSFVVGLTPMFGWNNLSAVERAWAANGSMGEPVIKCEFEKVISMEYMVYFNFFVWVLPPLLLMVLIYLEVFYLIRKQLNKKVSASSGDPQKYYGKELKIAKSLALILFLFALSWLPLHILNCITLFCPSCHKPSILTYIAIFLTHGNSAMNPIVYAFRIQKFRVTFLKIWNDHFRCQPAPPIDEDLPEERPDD
Method in brief: (§1)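 Recombinant CHO cells expressing A1 or A3 receptor (Gi-coupled) were stimulated with forskolin together with test compound and agonist (CPA for A1, IB-MECA for A3), incubated 30 min, then cellular cAMP was read by HTRF. Data were normalized to inhibitor control and DMSO neutral control, then curve-fitted.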

human A2B receptor = molecular target: T3, human A2B receptor (Homo sapiens, UniProt P29275); experiment: Functional A2B receptor activity, recombinant HEK293 cells, cAMP (HTRF), agonist NECA
T3 construct: expressed in transfected cells; host or cells: HEK293
T3 sequence (P29275 1-332): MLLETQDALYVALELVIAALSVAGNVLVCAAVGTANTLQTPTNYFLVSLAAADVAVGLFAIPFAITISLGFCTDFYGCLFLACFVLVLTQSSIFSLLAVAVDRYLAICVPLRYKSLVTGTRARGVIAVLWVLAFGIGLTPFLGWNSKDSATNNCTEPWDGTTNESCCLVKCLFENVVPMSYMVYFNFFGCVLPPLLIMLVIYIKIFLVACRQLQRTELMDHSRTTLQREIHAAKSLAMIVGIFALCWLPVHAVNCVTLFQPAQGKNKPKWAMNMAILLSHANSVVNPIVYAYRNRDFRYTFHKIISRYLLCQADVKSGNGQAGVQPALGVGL
Method in brief: (§2)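 Cellular cAMP measured by HTRF after 30 min incubation of cells with forskolin, test compounds and agonist. Data normalized to inhibitor control and DMSO neutral control, then curve-fitted.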

human A3 receptor = molecular target: T4, human A3 receptor (Homo sapiens, UniProt P0DMS8); experiment: Functional A3 receptor activity, recombinant CHO cells, cAMP (HTRF), forskolin, agonist IB-MECA; details: recombinant CHO cells, forskolin, agonist IB-MECA; read-out: Functional A3 receptor activity, CHO, cAMP, IC50
T4 construct: expressed in transfected cells; host or cells: CHO
T4 sequence (P0DMS8 1-318): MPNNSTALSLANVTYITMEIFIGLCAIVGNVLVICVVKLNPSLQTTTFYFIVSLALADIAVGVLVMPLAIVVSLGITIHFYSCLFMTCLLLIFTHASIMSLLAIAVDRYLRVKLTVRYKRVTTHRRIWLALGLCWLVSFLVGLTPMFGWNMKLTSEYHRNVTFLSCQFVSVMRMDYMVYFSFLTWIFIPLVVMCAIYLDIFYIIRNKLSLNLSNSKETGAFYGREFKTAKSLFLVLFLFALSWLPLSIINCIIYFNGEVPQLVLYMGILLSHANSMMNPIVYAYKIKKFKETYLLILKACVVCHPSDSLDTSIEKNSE
Method in brief: as §1

human A2A receptor [2] = molecular target: T1, human A2A receptor; experiment: Functional A2A receptor activity, recombinant HEK293 cells, cAMP (HTRF), agonist NECA; parameters: expressed in transfected cells; host or cells: HEK293
Method in brief: as §2

[3] = read-out: hTcell data, cAMP, IC50
[4] = read-out: Functional A2B receptor activity, HEK293, cAMP, IC50
[5] = read-out: Functional A2A receptor activity, HEK293, cAMP, IC50

T1 sequence (P29274 whole entry): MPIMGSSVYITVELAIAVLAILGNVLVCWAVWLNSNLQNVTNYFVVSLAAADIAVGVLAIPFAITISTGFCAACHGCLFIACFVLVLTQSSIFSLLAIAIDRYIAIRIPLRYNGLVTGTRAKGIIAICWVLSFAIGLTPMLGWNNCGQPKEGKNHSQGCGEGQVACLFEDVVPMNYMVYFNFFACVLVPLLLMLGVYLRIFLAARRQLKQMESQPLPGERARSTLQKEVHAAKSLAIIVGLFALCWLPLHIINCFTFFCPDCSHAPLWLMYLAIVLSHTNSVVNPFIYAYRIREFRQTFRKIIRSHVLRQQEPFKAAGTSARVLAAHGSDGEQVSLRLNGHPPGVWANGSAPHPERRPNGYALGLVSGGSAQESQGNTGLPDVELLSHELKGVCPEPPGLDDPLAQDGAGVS

SMILES	pIC50 (human A2A receptor [1]; [3])	pIC50 (human A1 receptor)	pIC50 (human A2B receptor; [4])	pIC50 (human A3 receptor)	pIC50 (human A2A receptor [2]; [5])	pIC50 (human A2A receptor [1])	pIC50 (human A2B receptor)	pIC50 (human A2A receptor [2])
COc1ncc(-c2cnn(Cc3ccccn3)c2)c2sc(NC(=O)N3CCC4(CCOCC4)C3)nc12 [Compound 69, 8-Oxa-2-aza-spiro[4.5]decane-2-carboxylic acid [4-methoxy-7-(1-pyridin-2-ylmethyl-1H-pyrazol-4-yl)-thiazolo[4,5-c]pyridin-2-yl]-amide]	> 8.00	> 7.00	> 8.00	> 6.00	> 8.00	–	–	–
COc1nc(F)c(C2CCOCC2)c2sc(NC(=O)N3CC[C@@]4(CCOC4)C3)nc12 [Compound 37, (R)-2-Oxa-7-aza-spiro[4.4]nonane-7-carboxylic acid [6-fluoro-4-methoxy-7-(tetrahydro-pyran-4-yl)-thiazolo[4,5-c]pyridin-2-yl]-amide]	> 8.00	< 6.00	> 7.00	< 6.00	> 8.00	–	–	–
COc1cnc(N2CCOCC2)c2sc(NC(=O)N3CCCCC3)nc12 [drawing 222]	> 6.00	–	–	–	–	–	–	–
COc1ncc(C2=CCCCC2)c2sc(NC(=O)N3CCC4(CCOCC4)C3)nc12 [Compound 59, 8-Oxa-2-aza-spiro[4.5]decane-2-carboxylic acid (7-cyclohex-1-enyl-4-methoxy-thiazolo[4,5-c]pyridin-2-yl)-amide]	> 8.00	> 6.00	> 7.00	< 6.00	> 8.00	–	–	–
[2H]C([2H])([2H])Oc1ncc(C2=CCOCC2)c2sc(NC(=O)N3CC[C@]4(CCCOC4)C3)nc12 [Compound 173, (5R)-N-[7-(3,6-dihydro-2H-pyran-4-yl)-4-(2H3)methoxy-[1,3]thiazolo[4,5-c]pyridin-2-yl]-7-oxa-2-azaspiro[4.5]decane-2-carboxamide]	> 8.00	> 6.00	> 8.00	< 6.00	> 8.00	–	–	–
COc1cnc(N2CCOCC2)c2sc(NC(=O)N3CCC4(CCN(C)C4=O)CC3)nc12 [drawing 215]	> 6.00	–	–	–	–	–	–	–
COc1ccc(N2CCOCC2)c2sc(NC(=O)N3CCCCC3)nc12 [drawing 221]	> 6.00	–	–	–	–	–	–	–
[2H]C([2H])([2H])Oc1ncc(C2=CCOCC2)c2sc(NC(=O)N3CC[C@@]4(CCCOC4)C3)nc12 [Compound 174, (5S)-N-[7-(3,6-dihydro-2H-pyran-4-yl)-4-(2H3)methoxy-[1,3]thiazolo[4,5-c]pyridin-2-yl]-7-oxa-2-azaspiro[4.5]decane-2-carboxamide]	–	< 6.00	–	< 6.00	–	> 8.00	> 7.00	> 8.00
COc1cnc(N2CCOCC2)c2sc(NC(=O)N3CCC(O)CC3)nc12	> 6.00	–	–	–	–	–	–	–
COc1ncc(-c2cnn(CC(F)F)c2)c2sc(NC(=O)N3CCC4(CCOCC4)C3)nc12 [Compound 74, 8-Oxa-2-aza-spiro[4.5]decane-2-carboxylic acid {7-[1-(2,2-difluoro-ethyl)-1H-pyrazol-4-yl]-4-methoxy-thiazolo[4,5-c]pyridin-2-yl}-amide]	> 7.00	> 6.00	> 7.00	< 6.00	> 8.00	–	–	–
COc1ncc([C@H]2COCCO2)c2sc(NC(=O)c3ccc(C(=O)O)cc3)nc12 [Compound 170, N-((S)-7-[1,4]Dioxan-2-yl-4-methoxy-thiazolo[4,5-c]pyridin-2-yl)-terephthalamic acid]	> 8.00	< 6.00	> 7.00	< 6.00	> 8.00	–	–	–
COc1ncc(C2=CCOCC2)c2sc(NC(=O)c3ccc(-n4ccnn4)cc3)nc12 [Compound 71, N-[7-(3,6-dihydro-2H-pyran-4-yl)-4-methoxy-[1,3]thiazolo[4,5-c]pyridin-2-yl]-4-(1H-1,2,3-triazol-1-yl)benzamide]	> 8.00	> 6.00	> 8.00	< 6.00	> 8.00	–	–	–
COc1ccc(N2CCOCC2)c2sc(NC(=O)N3CCC4(CCCO4)CC3)nc12 [drawing 219]	> 6.00	–	–	–	–	–	–	–
COc1cnc(N2CCOCC2)c2sc(NC(=O)N3CCC(CO)CC3)nc12 [drawing 217]	> 6.00	–	–	–	–	–	–	–
COc1cnc(N2CCOCC2)c2sc(NC(=O)N3CCOCC3)nc12 [drawing 223]	> 6.00	–	–	–	–	–	–	–
COc1cnc(N2CCOCC2)c2sc(NC(=O)N3CCC4(CCCO4)CC3)nc12 [drawing 218]	> 6.00	–	–	–	–	–	–	–
COc1ncc(-c2cnn(Cc3cccnc3)c2)c2sc(NC(=O)N3CCC4(CCOCC4)C3)nc12 [Compound 68, 8-Oxa-2-aza-spiro[4.5]decane-2-carboxylic acid [4-methoxy-7-(1-pyridin-3-ylmethyl-1H-pyrazol-4-yl)-thiazolo[4,5-c]pyridin-2-yl]-amide]	> 8.00	–	> 8.00	< 6.00	> 8.00	–	–	–
COc1ccc(-c2ccccc2)c2sc(NC(=O)NCCN3CCCCC3)nc12 [drawing 216]	> 6.00	–	–	–	–	–	–	–
COc1ncc(C2=CCOCC2)c2sc(NC(=O)c3cnc(C(=O)O)[nH]3)nc12 [Compound 168, 5-[7-(3,6-Dihydro-2H-pyran-4-yl)-4-methoxy-thiazolo[4,5-c]pyridin-2-ylcarbamoyl]-1H-imidazole-2-carboxylic acid]	> 7.00	–	> 7.00	< 6.00	> 8.00	–	–	–
COc1ncc(C2=CCOCC2)c2sc(NC(=O)c3c[nH]c(-c4ccncc4)n3)nc12 [Compound 165, 2-Pyridin-4-yl-1H-imidazole-4-carboxylic acid [7-(3,6-dihydro-2H-pyran-4-yl)-4-methoxy-thiazolo[4,5-c]pyridin-2-yl]-amide]	> 8.00	–	> 8.00	< 6.00	> 8.00	–	–	–
COc1ncc(C2=CCOCC2)c2sc(NC(=O)Nc3ccc(N4CCOC4=O)cc3)nc12 [Compound 95, 3-[7-(3,6-dihydro-2H-pyran-4-yl)-4-methoxy-[1,3]thiazolo[4,5-c]pyridin-2-yl]-1-[4-(2-oxo-1,3-oxazolidin-3-yl)phenyl]urea]	–	> 6.00	> 8.00	> 6.00	> 8.00	–	–	–
COc1nc(F)c(-c2ccccc2)c2sc(NC(=O)c3c[nH]cn3)nc12 [Compound 32, 1H-Imidazole-4-carboxylic acid (6-fluoro-4-methoxy-7-phenyl-thiazolo[4,5-c]pyridin-2-yl)-amide]	–	> 7.00	> 8.00	< 6.00	> 8.00	–	–	–
COc1ncc(C2=CCOCC2)c2sc(NC(=O)c3ccc(C(=O)N4CCN(C)CC4)cc3)nc12 [Compound 125, N-[7-(3,6-Dihydro-2H-pyran-4-yl)-4-methoxy-thiazolo[4,5-c]pyridin-2-yl]-4-(4-methyl-piperazine-1-carbonyl)-benzamide]	–	> 6.00	> 8.00	< 6.00	> 8.00	–	–	–
COc1ncc(-c2cccc(O)c2)c2sc(NC(=O)N3CCC4(CCOCC4)C3)nc12 [Compound 153, 8-Oxa-2-aza-spiro[4.5]decane-2-carboxylic acid [7-(3-hydroxy-phenyl)-4-methoxy-thiazolo[4,5-c]pyridin-2-yl]-amide]	–	> 6.00	> 8.00	< 6.00	> 8.00	–	–	–
